A short description of test [1]: Exercise performance test, 10 km SPIN CYCLE travel time (Example 3). The test is classed as in vivo, human. Conditions: about 200 mg/day. The procedure: As test subjects, 21 healthy males at the ages of 20 to 49 who have exercise habits of conducting exercise with an intensity of 5 METs or more for 30 minutes or more once or twice a week and who can continue the exercise habits during the test period as well were selected.
Among the 21 test subjects, 10 test subjects were selected as an α-cyclodextrin (αCD) intake group, and the remaining 11 test subjects were selected as a placebo group. The test subjects themselves were not informed who belonged to which group.
Test Supplements (tablets) having compositions described in Table 1 below were used. One tablet of the test supplements was of about 250 mg.
Each test subject of the αCD intake group and the placebo group was asked to take in 3 tablets of the above test supplements once a day at any timing. That is, each test subject of the α-cyclodextrin intake group was asked to take in about 200 mg of α-cyclodextrin per day.
The intake period for the test supplements was set to 9 weeks, and change in gut flora was evaluated, a questionnaire on fatigue feeling was conducted, and change in travel time was evaluated, before the start of the intake, after 4-week intake, and after 8-week intake. […]

Test [2] is described as follows: Suppression of increase in heart rate during exercise, Aerobike exercise loading test (Example 4). The test is classed as in vivo, human. The conditions noted are these: about 1000 mg/day. The procedure: (§1) As the test subjects, 86 healthy males at the ages of 20 to 49 who have exercise habits of conducting exercise with an intensity of 5 METs or more for 30 minutes or more once or twice a week and who can continue the exercise habits during the test period as well were selected.
(§2) Among the 86 test subjects, 43 test subjects were selected as an α-cyclodextrin (αCD) intake group, and the remaining 43 test subjects were selected as a placebo group. The test subjects themselves were not informed who belonged to which group.
(§3) Test Supplements (tablets) having compositions described in Table 4 below were used. One tablet of the test supplements was of about 600 mg.
(§4) Each test subject of the αCD intake group and the placebo group was asked to take in 4 tablets of the above test supplements once a day at any timing. That is, each test subject of the α-cyclodextrin intake group was asked to take in about 1000 mg of α-cyclodextrin per day.
(§5) The intake period for the test supplements was set to 8 weeks, and the heart rate during exercise was measured, before the start of the intake, after 4-week intake, and after 8-week intake to evaluate change in heart rate. In addition, a questionnaire on fatigue feeling was conducted before the start of the intake of the test supplements and after 8-week intake, and change in travel time was evaluated. […]

A short description of test [3]: Fatigue feeling mitigation test, VAS general fatigue feeling (Example 5). The test is classed as in vivo, human. The conditions noted are these: after 8-week intake, about 1000 mg/day; p<0.05. The procedure:
as §1, §2, §3, §4, §5

Test [4] relates to Bacteroides, Bifidobacterium, and Lactobacillus. Conditions: obese mice given high-fat diets, fed α-cyclodextrin; cited from earlier work.

Each structure is given as a SMILES string.

Consider `OC[C@H]1O[C@@H]2O[C@H]3[C@H](O)[C@@H](O)[C@@H](O[C@H]4[C@H](O)[C@@H](O)[C@@H](O[C@H]5[C@H](O)[C@@H](O)[C@@H](O[C@H]6[C@H](O)[C@@H](O)[C@@H](O[C@H]7[C@H](O)[C@@H](O)[C@@H](O[C@H]1[C@H](O)[C@H]2O)O[C@@H]7CO)O[C@@H]6CO)O[C@@H]5CO)O[C@@H]4CO)O[C@@H]3CO` [α-cyclodextrin], for which the “travel time for 10 km” value in test [1] (after 4-week intake, compared with same group before intake) was “significantly shortened”; in test [1] (after 8-week intake, compared with same group before intake and placebo group after 8-week intake) it was “significantly shortened”. For the same compound, the “average heart rate for 10 minutes immediately before the end of exercise (Δ value vs before intake), compared with placebo group” value in test [2] (after 4-week intake, tendency) was “lower”; in test [2] (after 8-week intake, p<0.05), “significantly lower”. For the same compound, in test [3], the “general fatigue feeling (VAS) immediately after exercise, change vs before intake, compared with placebo group” value was “significantly decreased”. The accumulation of fat result in test [4] is recorded as “reductions in accumulation of fat”. Also, the “total bacterial cell numbers of Bacteroides, Bifidobacterium, and Lactobacillus in the intestinal tracts” value in test [4] was “suppress decreases”.

(Values after patent US20250176602A1, “Composition for Proliferation of Bacteroides uniformis in the Intestinal Tract” (Asahi Group Holdings, Ltd., priority 2019, published 2025).)
